These are literature values, as cited in patent publication US9233176B2, “Systems and method of delivering fluids to a patient of varying concentration” (Bayer HealthCare LLC, priority 2006, dated 2016).

Where two headings read alike, the source gives them in different places.

With `COCC(=O)Nc1c(I)c(C(=O)NCC(O)CO)c(I)c(C(=O)N(C)CC(O)CO)c1I` (centres unmarked) [Iopromide], the iodine flux rate (300 mg I/ml solution, application flow rate 8 ml/s) was 2400 mg I/s and the iodine flux rate (370 mg I/ml solution, application flow rate 6 ml/s) was 2220 mg I/s.
